From ChEMBL document CHEMBL1208675, “Validated QSAR analysis of some diaryl substituted pyrazoles as CCR2 inhibitors by various linear and nonlinear multivariate chemometrics methods” (Eur J Med Chem, 2010) come the findings set out here.

For the test, the target named is C-C chemokine receptor type 2 (Homo sapiens, UniProt P41597). Put plainly: Inhibition of CCR2.
C-C chemokine receptor type 2, sequence (P41597 whole entry): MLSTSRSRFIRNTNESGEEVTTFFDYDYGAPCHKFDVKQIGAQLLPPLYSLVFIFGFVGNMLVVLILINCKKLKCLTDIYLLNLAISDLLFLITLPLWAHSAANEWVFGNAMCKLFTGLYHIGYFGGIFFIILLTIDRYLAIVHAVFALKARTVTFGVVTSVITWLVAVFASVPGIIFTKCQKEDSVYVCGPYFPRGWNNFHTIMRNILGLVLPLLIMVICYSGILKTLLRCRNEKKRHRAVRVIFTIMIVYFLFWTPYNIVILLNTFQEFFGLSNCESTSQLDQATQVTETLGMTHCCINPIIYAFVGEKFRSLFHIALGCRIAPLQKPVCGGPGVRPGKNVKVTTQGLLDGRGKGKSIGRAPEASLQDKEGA
As to `COC(=O)[C@H](CCCN=C(N)N)NC(=O)CCNCc1cc(-c2cc(Cl)cc(Cl)c2)nn1-c1ccc2ccccc2c1`, the half-maximal inhibitory concentration (IC50) – broadly, the midpoint of a concentration-inhibition curve – was 0.043 µM.

Take `O=C(CCc1cc(-c2cc(Cl)cc(Cl)c2)nn1-c1ccc2ccccc2c1)NCCCc1ccncc1`: the IC50 was 1.12 µM. With `O=C(CCc1cc(-c2cc(Cl)cc(Cl)c2)nn1-c1ccc2ccccc2c1)NCCCc1ccc2c(n1)NCCC2` the figure was 9.33 µM; with `COC(=O)[C@H](Cc1cnc[nH]1)NC(=O)CCc1cc(-c2cc(Cl)cc(Cl)c2)nn1-c1ccc2ccccc2c1`, 2.84 µM. Compound `CCN(CC)CCCC(C)NC(=O)CCCc1cc(-c2cc(Cl)cc(Cl)c2)nn1-c1ccc2ccccc2c1` (centres undefined) gave an IC50 of 6.47 µM. The compound `CN(C)CCCCNC(=O)CCc1cc(-c2cc(Cl)cc(Cl)c2)nn1-c1ccc2ccccc2c1` gave an IC50 of 1.8 µM. The compound `CCCCC(CCCN(CC)CC)NC(=O)CCOc1cc(-c2cc(Cl)cc(Cl)c2)nn1-c1ccc2ccccc2c1` (centres undefined) gave an IC50 of 0.052 µM. `CCN(CC)C(C)CCCNC(=O)CCc1cc(-c2cc(Cl)cc(Cl)c2)nn1-c1ccc2ccccc2c1` (centres undefined) gave a half-maximal inhibitory concentration (IC50) of 0.108 µM. The same measure for `CCN(CC)CCCCNC(=O)CCc1cc(-c2cc(Cl)cc(Cl)c2)nn1-c1ccc2ccccc2c1`: 1.22 µM.
